Results taken from the CheMixHub ionic liquid set.
Several values for one entry are separate records, joined by “and”; a condition that tells them apart may be missing. Equal entries are not always repeated.

Assay: xn = mol fraction of the nth substance listed
Details: 101.3 kPa

CCCC[N+]1(C)CCCCC1.F[P-](F)(F)(F)(F)F + CCCC[n+]1cccc(C)c1.F[P-](F)(F)(F)(F)F + CCCC[N+]1(C)CCCC1.F[P-](F)(F)(F)(F)F
viscosity
Details	333.15 K	338.15 K	343.15 K	348.15 K	353.15 K	358.15 K	363.15 K
x2 = 0.2, x1 = 0.32	–	194 mPa·s	152 mPa·s	121 mPa·s	98 mPa·s	80 mPa·s	66 mPa·s
x2 = 0.3, x1 = 0.28	–	163 mPa·s	129 mPa·s	103 mPa·s	84 mPa·s	69 mPa·s	57 mPa·s
x2 = 0.4, x1 = 0.06	–	111 mPa·s	89 mPa·s	72 mPa·s	60 mPa·s	50 mPa·s	42 mPa·s
x2 = 0.4, x1 = 0.12	–	121 mPa·s	97 mPa·s	78 mPa·s	64 mPa·s	53 mPa·s	45 mPa·s
x2 = 0.4, x1 = 0.18	–	125 mPa·s	100 mPa·s	81 mPa·s	66 mPa·s	55 mPa·s	46 mPa·s
x2 = 0.4, x1 = 0.24	–	137 mPa·s and 138 mPa·s	109 mPa·s	87 mPa·s and 88 mPa·s	71 mPa·s and 72 mPa·s	59 mPa·s	49 mPa·s
x2 = 0.4, x1 = 0.3	–	145 mPa·s	115 mPa·s	92 mPa·s	75 mPa·s	62 mPa·s	51 mPa·s
x2 = 0.4, x1 = 0.36	–	155 mPa·s	122 mPa·s	97 mPa·s	79 mPa·s	65 mPa·s	54 mPa·s
x2 = 0.4, x1 = 0.42	–	165 mPa·s	129 mPa·s	103 mPa·s	83 mPa·s	68 mPa·s	56 mPa·s
x2 = 0.4, x1 = 0.48	–	176 mPa·s	137 mPa·s	109 mPa·s	88 mPa·s	71 mPa·s	59 mPa·s
x2 = 0.4, x1 = 0.54	–	188 mPa·s	146 mPa·s	116 mPa·s	93 mPa·s	75 mPa·s	62 mPa·s
x2 = 0.5, x1 = 0.2	–	117 mPa·s	93 mPa·s	75 mPa·s	62 mPa·s	51 mPa·s	43 mPa·s
x2 = 0.6, x1 = 0.16	127 mPa·s	100 mPa·s	80 mPa·s	65 mPa·s	54 mPa·s	45 mPa·s	38 mPa·s
x2 = 0.7, x1 = 0.12	109 mPa·s	87 mPa·s	70 mPa·s	57 mPa·s	47 mPa·s	39 mPa·s	33 mPa·s
x2 = 0.8, x1 = 0.08	95 mPa·s	76 mPa·s	61 mPa·s	50 mPa·s	42 mPa·s	35 mPa·s	30 mPa·s
x2 = 0.9, x1 = 0.04	84 mPa·s	67 mPa·s	54 mPa·s	45 mPa·s	37 mPa·s	31 mPa·s	27 mPa·s
